Measurements as given in US20100234417A1, “THYROTROPIN RELEASING HORMONE RECEPTOR-OREXIN RECEPTOR HETERO-DIMERS/-OLIGOMERS” (DIMERIX BIOSCIENCE PTY LTD., priority 2006, published 2010).
Ends that are not written are not given here.

What was measured:
TRHR335 with TRHR = assay: eBRET: TRHR335/Rluc + EGFP/barr1 + TRHR as IG3; type: cell-based; details: FIG. 9
Source text: Briefly, referring to FIGS. 1 to 3, the IGs are provided in the form of the two receptors (TRHR and OxR). One of the two is attached to an RC (IG1-RC1, IG3). A second IG (IG2-RC2) is derived from a molecule that interacts with the receptors upon ligand binding (e.g. beta-arrestin, or a mutant thereof). The detection system not only detects the formation of the TRHR-OxR heterodimer but can distinguish whether a ligand or drug acts as an agonist, partial agonist, antagonist, inverse agonist or partial inverse agonist at the receptor hetero-dimer.
Cells were seeded in 6-well plates at a density of approximately 630,000 cells/well (HEK293FT) or approximately 150,000 cells/well (COS-7) and maintained at 37° C., 5% CO2 in Complete Media (DMEM containing 0.3 mg/ml glutamine, 100 IU/ml penicillin and 100 μg/ml streptomycin (Gibco)) supplemented with 10% fetal calf serum (FCS; Gibco). […] BRET measurements were taken at 37° C. using the Victor Light plate reader with Wallac 1420 software (Perkin-Elmer). Filtered light emissions were sequentially measured for 3-5 s in each of the ‘donor wavelength window’ (400-475 nm) and ‘acceptor wavelength window’ (>500 nm for EGFP or 520-540 nm for EYFP, Topaz (TYFP) or Venus). […] Unless otherwise stated, BRET signals were measured in 96-well microplates. […]

[1] = system: thyrotropin releasing hormone receptor/orexin receptor hetero-dimer/-oligomer (TRHR with OxR1); assay: eBRET: TRHR/Rluc + barr2/Venus + OxR1 as IG3 in HEK293 cells; type: cell-based; details: TRHR/Rluc + barr2/Venus + OxR1; 10^−6M OxA; FIG. 6
Experimental: Briefly, referring to FIGS. 1 to 3, the IGs are provided in the form of the two receptors (TRHR and OxR). One of the two is attached to an RC (IG1-RC1, IG3). A second IG (IG2-RC2) is derived from a molecule that interacts with the receptors upon ligand binding (e.g. beta-arrestin, or a mutant thereof).
Cells were seeded in 6-well plates at a density of approximately 630,000 cells/well (HEK293FT) or approximately 150,000 cells/well (COS-7) and maintained at 37° C., 5% CO2 in Complete Media (DMEM containing 0.3 mg/ml glutamine, 100 IU/ml penicillin and 100 μg/ml streptomycin (Gibco)) supplemented with 10% fetal calf serum (FCS; Gibco). Transient transfections were carried out 24 h after seeding using GeneJuice (Novagen) or Metafectene (Biontex) according to manufacturer instructions. 24 h post-transfection, cells were washed with PBS, detached using 0.05% trypsin/0.53 mM EDTA, resuspended in HEPES-buffered phenol red free Complete Media containing 5% FCS and added to a poly-L-lysine-coated white microplate (Nunc). 48 h post-transfection, eBRET assays were carried out following pre-incubation of cells with EnduRen™ (Promega) at a final concentration of 30-40 μM, at 37° C., 5% CO2 for 2 h. For original BRET studies, the HEPES-buffered phenol red free Complete Media was replaced with PBS and coelenterazine h (Molecular Probes) added to a final concentration of 5 μM immediately prior to commencing the assay. […] Filtered light emissions were sequentially measured for 3-5 s in each of the ‘donor wavelength window’ (400-475 nm) and ‘acceptor wavelength window’ (>500 nm for EGFP or 520-540 nm for EYFP, Topaz (TYFP) or Venus). The BRET signal observed between interacting proteins is normalized by subtracting the background BRET ratio. […] In this case, data are shown as ‘fluorescence/luminescence’ being the ratio of light emission through the ‘acceptor wavelength window’ over the 400-475 nm emission for a particular cell sample. Unless otherwise stated, BRET signals were measured in 96-well microplates. […]

With “OxA: orexin A; known orexin receptor modulator, used as IG3 ligand (modulator) (QPLPDCCRQKTCSCRLYELLHGAGNHAAGILTL; ends and bridges not checked; cysteine pairing not given here; UniProt O43612 34-66, looked up)” the eBRET signal (TRHR335 with TRHR) was “no eBRET signal above baseline” and the eBRET signal [1] was “small eBRET signal”.
